According to patent publication US20250381179A1, “CHROMAN-BASED COMPOUNDS FOR TREATING CANCER” (priority 2024, published 2025):

Assay: Phase 1 study: safety and tolerability (TEAEs, NCI CTCAE v5.0)
Procedure: The study employed an open-label, 3+3 design, with the option of adding backfill patients to each cohort cleared and deemed safe. […] Tumor responses were assessed every 2 cycles using RECIST v1.1 criteria. […] The study also involves an ongoing dose escalation study where participants receive 100 mg, 200 mg, 300 mg, 400 mg, and 600 mg once daily (QD) dose levels.
Safety was assessed through the analysis of the reported incidence of treatment-emergent AEs. Treatment-emergent AEs are those with an onset on or after the initiation of therapy and will be graded according to NCI CTCAE Version 5.0. Other safety endpoints, including laboratory results, vital signs, and ECG findings, were summarized for all patients in the Safety set.

[1] = Cohort 2/200 mg QD, patient 1, first listed event
[2] = Cohort 2/200 mg QD, patient 1, second listed event

## O=C1CC[C@H](N2Cc3cc(N4CCN(CC5CCN(c6ccc([C@@H]7c8ccc(O)cc8OC[C@@H]7c7ccccc7)cc6F)CC5)CC4)ccc3C2=O)C(=O)N1 [compound (1-g), (S)-3-(5-(4-((1-(2-fluoro-4-((3S,4R)-7-hydroxy-3-phenylchroman-4-yl)phenyl)piperidin-4-yl)methyl)piperazin-1-yl)-1-oxoisoindolin-2-yl)piperidine-2,6-dione]
400 mg QD (N = 6)
  TEAE: Nausea: 1 (16.7) n (%)
  TEAE: Neutrophil Count Decreased: 2 (33.3) n (%)
  TEAE: Oedema Peripheral: 1 (16.7) n (%)
  TEAE: Ophthalmic Migraine: 0 n (%)
  TEAE: Oral Pain: 0 n (%)
  TEAE: Pain In Extremity: 0 n (%)
  TEAE: Pharyngitis: 0 n (%)
  TEAE: Platelet Count Decreased: 1 (16.7) n (%)
  TEAE: Pleural Effusion: 0 n (%)
  TEAE: Pneumonia: 0 n (%)
  TEAE: Productive Cough: 0 n (%)
  TEAE: Rash Maculo-Papular: 0 n (%)
  TEAE: Rhinitis Allergic: 0 n (%)
  TEAE: Rib Fracture: 0 n (%)
  TEAE: Seizure: 0 n (%)
  TEAE: Sepsis: 0 n (%)
  TEAE: Tremor: 0 n (%)
  TEAE: Upper Respiratory Tract Infection: 0 n (%)
  TEAE: Urinary Tract Infection: 0 n (%)
  TEAE: Vaginal Haemorrhage: 0 n (%)
  TEAE: Vomiting: 0 n (%)
  related TEAE: Alopecia: 1 (16.7) n (%)
  related TEAE: Arthralgia: 0 n (%)
  related TEAE: Constipation: 1 (16.7) n (%)
  related TEAE: Diarrhea: 1 (16.7) n (%)
  related TEAE: Dysgeusia: 1 (16.7) n (%)
  related TEAE: Eructation: 1 (16.7) n (%)
  related TEAE: Fatigue: 0 n (%)
  related TEAE: Flatulence: 1 (16.7) n (%)
  related TEAE: Hot Flush: 0 n (%)
  related TEAE: Hyperhidrosis: 0 n (%)
  related TEAE: Nail Disorder: 1 (16.7) n (%)
  related TEAE: Nausea: 1 (16.7) n (%)
  related TEAE: Neutrophil Count Decreased: 2 (33.3) n (%)
  related TEAE: Platelet Count Decreased: 1 (16.7) n (%)
  related TEAE: Tremor: 0 n (%)
  related TEAE: Vomiting: 0 n (%)
600 mg QD (N = 4)
  Patients with Any Compound (1-g) related TEAE: 2 (50.0) n (%)
  Patients with Any TEAE: 2 (50.0) n (%)
  TEAE: Abdominal Distension: 0 n (%)
  TEAE: Abdominal Pain: 0 n (%)
  TEAE: Acute Kidney Injury: 0 n (%)
  TEAE: Adrenal Insufficiency: 0 n (%)
  TEAE: Alopecia: 0 n (%)
  TEAE: Anaemia: 0 n (%)
  TEAE: Anxiety: 0 n (%)
  TEAE: Arthralgia: 0 n (%)
  TEAE: Axillary Vein Thrombosis: 0 n (%)
  TEAE: Back Pain: 1 (25.0) n (%)
  TEAE: Basal Cell Carcinoma: 0 n (%)
  TEAE: Breast Pain: 0 n (%)
  TEAE: Confusional State: 0 n (%)
  TEAE: Constipation: 1 (25.0) n (%)
  TEAE: Cough: 0 n (%)
  TEAE: Covid-19 Pneumonia: 0 n (%)
  TEAE: Dehydration: 0 n (%)
  TEAE: Diarrhoea: 0 n (%)
  TEAE: Dizziness: 0 n (%)
  TEAE: Dysgeusia: 0 n (%)
  TEAE: Dyspepsia: 0 n (%)
  TEAE: Dyspnoea: 0 n (%)
  TEAE: Dysuria: 0 n (%)
  TEAE: Eructation: 0 n (%)
  TEAE: Fall: 0 n (%)
  TEAE: Fatigue: 0 n (%)
  TEAE: Flatulence: 0 n (%)
  TEAE: Fracture: 0 n (%)
  TEAE: Fungal Infection: 0 n (%)
  TEAE: Haematoma: 0 n (%)
  TEAE: Hot Flush: 1 (25.0) n (%)
  TEAE: Hyperglycaemia: 0 n (%)
  TEAE: Hyperhidrosis: 1 (25.0) n (%)
  TEAE: Hypokalaemia: 0 n (%)
  TEAE: Hypotension: 0 n (%)
  TEAE: Influenza Like Illness: 0 n (%)
  TEAE: Insomnia: 0 n (%)
  TEAE: Lower Respiratory Tract Congestion: 0 n (%)
  TEAE: Lymphocyte Count Decreased: 0 n (%)
  TEAE: Muscle Spasm: 0 n (%)
  TEAE: Muscular Weakness: 0 n (%)
  TEAE: Musculoskeletal Stiffness: 0 n (%)
  TEAE: Nail Disorder: 0 n (%)
  TEAE: Nasal Congestion: 0 n (%)
  TEAE: Nausea: 0 n (%)
  TEAE: Neutrophil Count Decreased: 1 (25.0) n (%)
  TEAE: Oedema Peripheral: 0 n (%)
  TEAE: Ophthalmic Migraine: 0 n (%)
  TEAE: Oral Pain: 0 n (%)
  TEAE: Pain In Extremity: 0 n (%)
  TEAE: Pharyngitis: 0 n (%)
  TEAE: Platelet Count Decreased: 0 n (%)
  TEAE: Pleural Effusion: 0 n (%)
  TEAE: Pneumonia: 0 n (%)
  TEAE: Productive Cough: 0 n (%)
  TEAE: Rash Maculo-Papular: 0 n (%)
  TEAE: Rhinitis Allergic: 0 n (%)
  TEAE: Rib Fracture: 0 n (%)
  TEAE: Seizure: 0 n (%)
  TEAE: Sepsis: 0 n (%)
  TEAE: Tremor: 0 n (%)
  TEAE: Upper Respiratory Tract Infection: 0 n (%)
  TEAE: Urinary Tract Infection: 0 n (%)
  TEAE: Vaginal Haemorrhage: 0 n (%)
  TEAE: Vomiting: 0 n (%)
  related TEAE: Alopecia: 0 n (%)
  related TEAE: Arthralgia: 0 n (%)
  related TEAE: Constipation: 1 (25.0) n (%)
  related TEAE: Diarrhea: 0 n (%)
  related TEAE: Dysgeusia: 0 n (%)
  related TEAE: Eructation: 0 n (%)
  related TEAE: Fatigue: 0 n (%)
  related TEAE: Flatulence: 0 n (%)
  related TEAE: Hot Flush: 1 (25.0) n (%)
  related TEAE: Hyperhidrosis: 1 (25.0) n (%)
  related TEAE: Nail Disorder: 0 n (%)
  related TEAE: Nausea: 0 n (%)
  related TEAE: Neutrophil Count Decreased: 1 (25.0) n (%)
  related TEAE: Platelet Count Decreased: 0 n (%)
  related TEAE: Tremor: 0 n (%)
  related TEAE: Vomiting: 0 n (%)
100-600 mg QD
  correlation of TEAE incidence with dose level: did not seem to correlate with increasing dose levels
100-600 mg QD, 37 patients
  dose limiting toxicities: No dose limiting toxicities were observed
Cohort 1 (100 mg QD)
  participants with TEAEs that led to dose interruption: 3 participants
Cohort 1/100 mg QD, patient 1
  CTCAE Grade of TEAE leading to dose interruption: Fall: 2
  Duration of TEAE leading to dose interruption: Fall: 1 days
  Related to Compound (1-g), TEAE leading to dose interruption: Fall: No
Cohort 1/100 mg QD, patient 2
  CTCAE Grade of TEAE leading to dose interruption: Fatigue: 3
  Related to Compound (1-g), TEAE leading to dose interruption: Fatigue: No
Cohort 1/100 mg QD, patient 3
  CTCAE Grade of TEAE leading to dose interruption: Confusional state: 2
  Duration of TEAE leading to dose interruption: Confusional state: 2 days
  Related to Compound (1-g), TEAE leading to dose interruption: Confusional state: No
Cohort 2 (200 mg QD)
  participants with TEAEs that led to dose interruption: 4 participants
[1]
  CTCAE Grade of TEAE leading to dose interruption: Anaemia: 2
  Duration of TEAE leading to dose interruption: Anaemia: 28 days
  Related to Compound (1-g), TEAE leading to dose interruption: Anaemia: No
[2]
  CTCAE Grade of TEAE leading to dose interruption: Anaemia: 3
  Related to Compound (1-g), TEAE leading to dose interruption: Anaemia: No
Cohort 2/200 mg QD, patient 2
  CTCAE Grade of TEAE leading to dose interruption: Fatigue: 2
  CTCAE Grade of TEAE leading to dose interruption: Muscular weakness: 2
  Related to Compound (1-g), TEAE leading to dose interruption: Fatigue: No
  Related to Compound (1-g), TEAE leading to dose interruption: Muscular weakness: No
Cohort 2/200 mg QD, patient 3
  CTCAE Grade of TEAE leading to dose interruption: Seizure: 3
  CTCAE Grade of TEAE leading to dose interruption: Sepsis: 3
  Duration of TEAE leading to dose interruption: Seizure: 20 days
  Duration of TEAE leading to dose interruption: Sepsis: 20 days
  Related to Compound (1-g), TEAE leading to dose interruption: Seizure: No
  Related to Compound (1-g), TEAE leading to dose interruption: Sepsis: No
Cohort 2/200 mg QD, patient 4, first listed event
  CTCAE Grade of TEAE leading to dose interruption: Pain in extremity: 1
